Measured values as given in publication PMC3919268, “Three-dimensional structure of a Streptomyces sviceus GNAT acetyltransferase with similarity to the C-terminal domain of the human GH84 O-GlcNAcase” (Acta Crystallographica Section D: Biological Crystallography, 2013).

Target: T1, SsAT (acetyltransferase, accession No. ZP_05014886) (Streptomyces sviceus, UniProt B5HKU0)
T1 construct: gene SSEG_00025; recombinant N-terminally His-tagged SsAT, freshly purified
Test: ITC, pH […]°C, one-site model, n close to […]
Type: binding

T1 sequence (B5HKU0 entry or part of it): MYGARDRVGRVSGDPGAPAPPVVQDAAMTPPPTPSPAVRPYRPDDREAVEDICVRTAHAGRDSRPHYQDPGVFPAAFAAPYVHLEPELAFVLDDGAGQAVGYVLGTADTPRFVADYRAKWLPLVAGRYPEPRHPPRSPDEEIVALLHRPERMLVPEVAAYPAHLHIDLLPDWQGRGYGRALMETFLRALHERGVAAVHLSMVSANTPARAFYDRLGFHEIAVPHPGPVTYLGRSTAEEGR

Compound: CC(=O)SCCNC(=O)CCNC(=O)[C@H](O)C(C)(C)COP(=O)(O)OP(=O)(O)OC[C@H]1O[C@@H](n2cnc3c(N)ncnc32)[C@H](O)[C@@H]1OP(=O)(O)O [acetyl coenzyme A]
- Kd: 20 µM
